According to patent publication US20030055070A1, “Phosphodiesterase type 5 (PDE5) inhibitors for the treatment of selective serotonin reuptake inhibitor (SSR) induced sexual dysfunction” (priority 1999, published 2003):

What was measured:
[1] = system: men with ED; assay: Retrospective subanalysis of 10 double-blind, placebo-controlled sildenafil citrate studies, IIEF questionnaire; patients without SSRIs; format: in vivo, human
Method: (§1) A retrospective analysis of combined data from 10 Phase II/III double-blind, placebo-controlled, fixed- and flexible-dose trials identified a subgroup of men with ED who were receiving 5-200 mg of sildenafil citrate (S) or placebo (P) and taking concomitant SSRIs. Studies of sildenafil citrate in various populations have been reported. For example, Goldstein et al. report the results of two sildenafil citrate studies in men. In one study 532 men were treated with oral sildenafil citrate (25, 50 or 100 mg) or placebo over 24 weeks to study dose-response. In the second study 329 men were treated with sildenafil citrate or placebo with dose escalation to 100 mg based on efficacy and tolerance. Additional studies may be found in the following references: Derry et al. (1998), Dinsmore et al. (1999), Goldstein et al. (1998), Padma-Nathan et al. (1998) and Rendell et al. (1999). Analysis of efficacy (ANCOVA) included responses to several questions including question 9 (Q9; frequency of ejaculation) and question 10 (Q10; frequency of orgasm) of the International Index of Erectile Function. In the International Index of Erectile Function, sexual activity includes intercourse, caressing, foreplay and masturbation; sexual intercourse is defined as vaginal penetration of a partner by the respondent; sexual stimulation includes situations like foreplay with a partner, looking at erotic pictures, etc.; ejaculation: the ejection of semen from the penis (or the feeling of this). Question 9 is, “Over the past 4 weeks, when you had sexual stimulation or intercourse how often did you ejaculate?” Question 10 is, “Over the past 4 weeks, when you had sexual stimulation or intercourse how often did you have the feeling of orgasm (with or without ejaculation)? Scores are based on a scale from 1 (almost never or never) to 5 (almost always or always), with 0 representing “No sexual stimulation/intercourse.” Each question was scored from 0 to 5, with lower scores indicating greater sexual dysfunction. Results are expressed as mean baseline score's standard error of mean, (±SEM) and mean change from baseline (±SEM) at the end of treatment (6 to 24 weeks).
(§2) This was a retrospective subanalysis of combined data from 10 double-blind, placebo-controlled, fixed- and flexible-dose studies with sildenafil citrate for the treatment of ED. The subanalysis was conducted to assess whether treatment with sildenafil citrate can alleviate symptoms of sexual dysfunction in men taking SSRIs. The studies lasted for 6 to 24 weeks and dosing of the study drug ranged from 5 mg to 200 mg of sildenafil citrate or matching placebo. Patients were instructed to take medication approximately 1 hour before anticipated sexual activity but not more than once daily.
(§3) A total of 3414 patients were randomized to treatment. The main inclusion criteria were as follows: Men aged 18 years and older; Clinical diagnosis of ED of more than 6 months' duration; Stable relationship with a female partner for at least 6 months prior to the study; and written informed consent. The main exclusion criteria were as follows: Penile anatomical deformities; Major illness or uncontrolled psychiatric disorder; Concomitant treatment with nitrates or nitric oxide donors, estrogens, androgens, or anticoagulants. Other treatments for sexual dysfunction were not allowed during the study.
Efficacy was assessed at the end of treatment (6 to 24 weeks) by responses to the validated 15-item International Index of Erectile Function (IIEF) questionnaire. Rosen et al. (1997) “The International Index of Erectile Function (IIEF): a Multidimensional Scale for Assessment of Erectile Dysfunction,” Urology 49:822-830. Responses were graded on a scale of 1 (“almost never/never”) to 5 (“almost always/always”), with a score of 0 indicating no sexual activity. Efficacy results were evaluated using analysis of covariance (ANCOVA) and were expressed as mean scores.

[2] = system: men with ED taking concomitant SSRIs; assay: Retrospective subanalysis of 10 double-blind, placebo-controlled sildenafil citrate studies, IIEF questionnaire; patients taking concomitant SSRIs; format: in vivo, human
Method: as §1, §2, §3
Efficacy was assessed at the end of treatment (6 to 24 weeks) by responses to the validated 15-item International Index of Erectile Function (IIEF) questionnaire. Rosen et al. (1997) “The International Index of Erectile Function (IIEF): a Multidimensional Scale for Assessment of Erectile Dysfunction,” Urology 49:822-830. Responses were graded on a scale of 1 (“almost never/never”) to 5 (“almost always/always”), with a score of 0 indicating no sexual activity. Efficacy results were evaluated using analysis of covariance (ANCOVA) and were expressed as mean scores. […]

[3] = system: SSRI induced sexual dysfunction in men and women; settings: nine men, five women; twelve on SSRIs, two on mirtazapine; all patients; cited from earlier work
[4] = system: SSRI induced sexual dysfunction; settings: four patients (two men, two women); all reported; cited from earlier work
[5] = system: SSRI-induced sexual side effects; settings: case studies of patients taking SSRIs; cited from earlier work
[6] = no SSRI, end of treatment (6 to 24 weeks), 5-200 mg, scale 0-5
[7] = no SSRI, p<0.0001 versus placebo
[8] = without SSRIs, 5-200 mg, end of treatment (6 to 24 weeks), scale 0-5
[9] = without SSRIs, baseline, scale 0-5
[10] = with SSRIs, 5-200 mg, end of treatment (6 to 24 weeks), scale 0-5
[11] = with SSRIs, baseline, scale 0-5

SMILES: CCCc1nn(C)c2c(=O)[nH]c(-c3cc(S(=O)(=O)N4CCN(C)CC4)ccc3OCC)nc12.O=C(O)CC(O)(CC(=O)O)C(=O)O [Sildenafil citrate, 1-[[3-(6,7-dihydro-1-methyl-7-oxo-3-propyl-1H-pyrazolo[4,3-d]pyrimidin-5-yl)-4-ethoxyphenyl]sulfonyl]-4-methylpiperazine citrate]
- Improvement of score, erection confidence (Question 15) ([1]; no SSRI, baseline to endpoint): 76%
- Improvement of score, erection firmness (Question 2) ([1]; no SSRI, baseline to endpoint): 78%
- Improvement of score, erection frequency (Question 1) ([1]; no SSRI, baseline to endpoint): 60%
- Improvement of score, maintenance ability (Question 5) ([1]; no SSRI, baseline to endpoint): 117%
- Increase of mean score, intercourse enjoyment (Question 8) ([1]; no SSRI, baseline to endpoint): 70%
- Increase of mean score, intercourse frequency (Question 6) ([1]; no SSRI, baseline to endpoint): 57%
- Increase of mean score, intercourse satisfaction (Question 7) ([1]; no SSRI, baseline to endpoint): 93%
- Increase of mean score, overall satisfaction with sex life (Question 13) ([1]; no SSRI, baseline to endpoint): 68%
- Increase of mean score, satisfaction with the relationship (Question 14) ([1]; no SSRI, baseline to endpoint): 40%
- IIEF Question 1 erection frequency, baseline mean score ([1]; no SSRI, baseline, scale 0-5): 2.27 ± 0.04
- IIEF Question 2 erection firmness, baseline mean score ([1]; no SSRI, baseline, scale 0-5): 1.97 ± 0.03
- IIEF Question 5 maintenance ability, baseline mean score ([1]; no SSRI, baseline, scale 0-5): 1.54 ± 0.03
- IIEF Question 6 intercourse frequency, baseline mean score ([1]; no SSRI, baseline, scale 0-5): 2.00 ± 0.03
- IIEF Question 7 intercourse satisfaction, baseline mean score ([1]; no SSRI, baseline, scale 0-5): 1.75 ± 0.03
- IIEF Question 8 intercourse enjoyment, baseline mean score ([1]; no SSRI, baseline, scale 0-5): 1.86 ± 0.03
- IIEF Question 13 overall satisfaction, baseline mean score ([1]; no SSRI, baseline, scale 0-5): 2.00 ± 0.02
- IIEF Question 14 relationship satisfaction, baseline mean score ([1]; no SSRI, baseline, scale 0-5): 2.63 ± 0.03
- IIEF Question 15 erection confidence, baseline mean score ([1]; no SSRI, baseline, scale 0-5): 1.76 ± 0.02
- Increase of mean score from mean baseline score, ability to achieve an erection (Question 3) ([1]; no SSRI, end of treatment): 80%
- Increase of mean score from mean baseline score, ability to maintain an erection (Question 4) ([1]; no SSRI, end of treatment): 107%
- IIEF Question 1 erection frequency, endpoint mean score [1, 6]: 3.63 ± 0.04
- IIEF Question 2 erection firmness, endpoint mean score [1, 6]: 3.50 ± 0.04
- IIEF Question 5 maintenance ability, endpoint mean score [1, 6]: 3.35 ± 0.04
- IIEF Question 6 intercourse frequency, endpoint mean score [1, 6]: 3.13 ± 0.03
- IIEF Question 7 intercourse satisfaction, endpoint mean score [1, 6]: 3.38 ± 0.04
- IIEF Question 8 intercourse enjoyment, endpoint mean score [1, 6]: 3.16 ± 0.03
- IIEF Question 13 overall satisfaction, endpoint mean score [1, 6]: 3.36 ± 0.03
- IIEF Question 14 relationship satisfaction, endpoint mean score [1, 6]: 3.68 ± 0.03
- IIEF Question 15 erection confidence, endpoint mean score [1, 6]: 3.10 ± 0.03
- Frequency of ejaculation (Question 9), mean score versus placebo, in words [1, 7]: increased significantly
- Frequency of orgasm (Question 10), mean score versus placebo, in words [1, 7]: increased significantly
- Important aspects of sexual function, in words ([1]; patients with ED without concomitant SSRI): significantly improved
- IIEF Q9 frequency of ejaculation, mean change from baseline ± SEM [1, 8]: 0.90 ± 0.04
- IIEF Q10 frequency of orgasm, mean change from baseline ± SEM [1, 8]: 0.93 ± 0.04
- IIEF Q9 frequency of ejaculation, mean baseline score ± SEM [1, 9]: 2.74 ± 0.04
- IIEF Q10 frequency of orgasm, mean baseline score ± SEM [1, 9]: 2.65 ± 0.04
- Frequency of orgasm (Question 10), effect versus placebo, in words ([2]; concomitant SSRI, p<0.01 versus placebo, citrate): significantly improved
- Frequency of ejaculation (Question 9), effect versus placebo, in words ([2]; concomitant SSRI, p<0.02 versus placebo, citrate): significantly improved
- Important aspects of sexual function, in words ([2]; patients with ED with concomitant SSRI): significantly improved
- IIEF Q9 frequency of ejaculation, mean change from baseline ± SEM [2, 10]: 1.16 ± 0.25
- IIEF Q10 frequency of orgasm, mean change from baseline ± SEM [2, 10]: 1.34 ± 0.27
- IIEF Q9 frequency of ejaculation, mean baseline score ± SEM [2, 11]: 2.42 ± 0.23
- IIEF Q10 frequency of orgasm, mean baseline score ± SEM [2, 11]: 2.24 ± 0.22
- Sexual functioning, in words [3]: statistically significant improvement
- Effect on SSRI induced sexual dysfunction, in words [4]: rapid reversal of SSRI induced sexual dysfunction
- Response to treatment, in words [5]: responding well
